Measurements reported in publication PMC6478789, “A chemical toolbox for the study of bromodomains and epigenetic signaling” (Nature Communications, 2019).
Read-outs that look alike come from different tables or passages of the source.

How the values were obtained:
[1] = biological target: EP300 (Homo sapiens, UniProt Q09472); assay: Histone acetyltransferase (HAT) activity assay; format: biochemical; settings: for activity at 1 µM / activity at 10 µM: read-out: HATs Activity (%);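 as to all read-outs here: selectivity screen of bromodomain probe compounds against histone acetyltransferases, with enzyme activity given in percent for compounds tested at 1 and 10 µM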
[2] = biological target: T1, HAT1 (Homo sapiens, UniProt O14929); assay: Histone acetyltransferase (HAT) activity assay; format: biochemical; settings: for activity at 1 µM / activity at 10 µM: read-out: HATs Activity (%);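 as to all read-outs here: HAT selectivity screen of BRD probe compounds, enzyme activity in % measured with compound at 1 µM and 10 µM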
T1 sequence (O14929 1-419): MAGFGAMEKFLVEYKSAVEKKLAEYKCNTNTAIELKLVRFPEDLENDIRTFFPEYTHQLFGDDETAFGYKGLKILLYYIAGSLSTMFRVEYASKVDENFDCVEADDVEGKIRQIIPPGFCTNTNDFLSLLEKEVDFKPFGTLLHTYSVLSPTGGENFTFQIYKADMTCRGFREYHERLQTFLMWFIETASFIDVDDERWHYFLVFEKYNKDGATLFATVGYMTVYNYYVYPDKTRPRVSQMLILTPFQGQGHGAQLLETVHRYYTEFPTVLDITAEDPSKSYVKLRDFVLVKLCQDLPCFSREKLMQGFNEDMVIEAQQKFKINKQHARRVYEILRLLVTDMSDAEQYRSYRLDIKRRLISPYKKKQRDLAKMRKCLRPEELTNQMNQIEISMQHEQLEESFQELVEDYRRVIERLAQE

[3] = biological target: T2, MYST1 (Homo sapiens, UniProt Q9H7Z6); assay: Histone acetyltransferase (HAT) activity assay; format: biochemical; settings: for activity at 1 µM / activity at 10 µM: read-out: HATs Activity (%);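 as to all read-outs here: selectivity screen across a panel of histone acetyltransferases, with compounds tested at 1 and 10 µM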
T2 sequence (Q9H7Z6 1-458): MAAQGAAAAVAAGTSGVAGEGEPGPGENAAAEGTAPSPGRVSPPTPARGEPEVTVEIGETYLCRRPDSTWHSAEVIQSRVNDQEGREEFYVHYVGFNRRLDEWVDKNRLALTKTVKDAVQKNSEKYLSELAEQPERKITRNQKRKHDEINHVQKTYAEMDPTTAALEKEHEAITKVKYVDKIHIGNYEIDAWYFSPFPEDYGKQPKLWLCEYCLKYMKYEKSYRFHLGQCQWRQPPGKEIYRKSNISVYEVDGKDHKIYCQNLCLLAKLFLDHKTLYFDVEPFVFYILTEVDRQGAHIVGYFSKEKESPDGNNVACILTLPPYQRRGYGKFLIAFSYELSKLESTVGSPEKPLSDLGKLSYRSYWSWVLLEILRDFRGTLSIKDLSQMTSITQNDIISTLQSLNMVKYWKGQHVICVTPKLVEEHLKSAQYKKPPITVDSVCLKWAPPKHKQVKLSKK

[4] = biological target: MYST3 (Homo sapiens, UniProt Q92794); assay: Histone acetyltransferase (HAT) activity assay; format: biochemical; settings: for activity at 1 µM / activity at 10 µM: read-out: HATs Activity (%);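 as to all read-outs here: selectivity screen of bromodomain probe compounds across a panel of histone acetyltransferases, read out as enzyme activity in %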
[5] = biological target: GCN5L2 (Homo sapiens, UniProt Q92830); assay: Histone acetyltransferase (HAT) activity assay; format: biochemical; settings: for activity at 1 µM / activity at 10 µM: read-out: HATs Activity (%);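 as to all read-outs here: selectivity screen of BRD probe compounds across a panel of histone acetyltransferases, HAT activity in % with compound at 1 or 10 µM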
[6] = biological target: T3, ATAD2B (Homo sapiens, UniProt Q9ULI0); assay: BROMOscan ligand-binding assay
T3 sequence (Q9ULI0 951-1066 limits assumed): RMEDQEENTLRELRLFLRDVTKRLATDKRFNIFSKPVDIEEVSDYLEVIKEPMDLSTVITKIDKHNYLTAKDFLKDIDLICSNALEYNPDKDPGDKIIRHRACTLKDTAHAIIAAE
Text: (§1) BROMOscan is a binding assay based on the well-known KINOMEscan technology. This assay measures the binding of a DNA-tagged bromodomain to an immobilized BRD ligand. If an inhibitor is present, it will compete with the bromodomain binding to the immobilized ligand, resulting in reduction of a quantitative PCR (qPCR) signal in a dose-dependent manner.

[7] = biological target: BRD4(2) (Homo sapiens, UniProt O60885); assay: BROMOscan ligand-binding assay; settings: BROMOscan Gene Symbol BRD4(2)
Text: as §1

[8] = biological target: T4, BRD9 (Homo sapiens, UniProt Q9H8M2); assay: BROMOscan ligand-binding assay
T4 sequence (Q9H8M2 136-240 limits assumed): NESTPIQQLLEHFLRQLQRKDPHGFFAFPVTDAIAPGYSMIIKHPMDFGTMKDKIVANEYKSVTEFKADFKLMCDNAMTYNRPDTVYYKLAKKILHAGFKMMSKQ
Text: as §1

[9] = biological target: BRDT(2) (Homo sapiens, UniProt Q58F21); assay: BROMOscan ligand-binding assay
Text: as §1

[10] = biological target: T5, BRPF1 (Homo sapiens, UniProt P55201); assay: BROMOscan ligand-binding assay
T5 sequence (P55201 628-732 limits assumed): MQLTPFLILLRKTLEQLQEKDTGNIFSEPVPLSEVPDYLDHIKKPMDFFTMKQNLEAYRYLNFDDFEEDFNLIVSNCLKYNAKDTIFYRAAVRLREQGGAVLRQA
Text: as §1

[11] = biological target: T6, BRPF3 (Homo sapiens, UniProt Q9ULD4); assay: BROMOscan ligand-binding assay
T6 sequence (Q9ULD4 589-693 limits assumed): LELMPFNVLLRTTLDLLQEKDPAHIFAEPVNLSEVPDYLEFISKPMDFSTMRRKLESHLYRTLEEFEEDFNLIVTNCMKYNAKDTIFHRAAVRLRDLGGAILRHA
Text: as §1

[12] = biological target: CREBBP (Homo sapiens, UniProt Q92793); assay: BROMOscan ligand-binding assay
Text: as §1

[13] = biological target: PBRM1(2) (Homo sapiens, UniProt Q86U86); assay: BROMOscan ligand-binding assay
Text: as §1

[14] = biological target: T7, TAF1(2) (Homo sapiens, UniProt P21675); assay: BROMOscan ligand-binding assay
T7 sequence (P21675 1519-1628 limits assumed): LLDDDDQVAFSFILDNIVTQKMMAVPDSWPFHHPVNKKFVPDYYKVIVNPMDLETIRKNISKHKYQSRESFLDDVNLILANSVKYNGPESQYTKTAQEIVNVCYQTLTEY
Text: as §1

[15] = biological target: CECR2 (Homo sapiens, UniProt Q9BXF3); assay: BROMOscan ligand-binding assay
Text: as §1

[16] = biological target: T8, TRIM24 (Homo sapiens, UniProt O15164); assay: BROMOscan ligand-binding assay
T8 sequence (O15164 899-1004 limits assumed): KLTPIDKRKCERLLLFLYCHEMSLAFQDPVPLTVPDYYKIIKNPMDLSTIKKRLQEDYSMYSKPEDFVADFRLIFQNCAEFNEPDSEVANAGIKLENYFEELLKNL
Text: as §1

[17] = read-out: KD (BROMOscan), sheet prints no unit (nM)
[18] = KD (BROMOscan), sheet prints no unit (nM)

PBRM1(2), sequence (Q86U86 177-287 limits assumed): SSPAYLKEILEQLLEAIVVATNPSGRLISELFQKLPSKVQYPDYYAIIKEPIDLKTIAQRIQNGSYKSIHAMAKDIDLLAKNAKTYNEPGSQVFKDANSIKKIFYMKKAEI
CECR2, sequence (Q9BXF3 434-538 limits assumed): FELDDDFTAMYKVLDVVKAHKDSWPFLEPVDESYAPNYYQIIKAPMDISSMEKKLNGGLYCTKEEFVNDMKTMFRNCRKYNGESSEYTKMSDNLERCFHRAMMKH
MYST3, sequence (Q92794 whole entry, species assumed): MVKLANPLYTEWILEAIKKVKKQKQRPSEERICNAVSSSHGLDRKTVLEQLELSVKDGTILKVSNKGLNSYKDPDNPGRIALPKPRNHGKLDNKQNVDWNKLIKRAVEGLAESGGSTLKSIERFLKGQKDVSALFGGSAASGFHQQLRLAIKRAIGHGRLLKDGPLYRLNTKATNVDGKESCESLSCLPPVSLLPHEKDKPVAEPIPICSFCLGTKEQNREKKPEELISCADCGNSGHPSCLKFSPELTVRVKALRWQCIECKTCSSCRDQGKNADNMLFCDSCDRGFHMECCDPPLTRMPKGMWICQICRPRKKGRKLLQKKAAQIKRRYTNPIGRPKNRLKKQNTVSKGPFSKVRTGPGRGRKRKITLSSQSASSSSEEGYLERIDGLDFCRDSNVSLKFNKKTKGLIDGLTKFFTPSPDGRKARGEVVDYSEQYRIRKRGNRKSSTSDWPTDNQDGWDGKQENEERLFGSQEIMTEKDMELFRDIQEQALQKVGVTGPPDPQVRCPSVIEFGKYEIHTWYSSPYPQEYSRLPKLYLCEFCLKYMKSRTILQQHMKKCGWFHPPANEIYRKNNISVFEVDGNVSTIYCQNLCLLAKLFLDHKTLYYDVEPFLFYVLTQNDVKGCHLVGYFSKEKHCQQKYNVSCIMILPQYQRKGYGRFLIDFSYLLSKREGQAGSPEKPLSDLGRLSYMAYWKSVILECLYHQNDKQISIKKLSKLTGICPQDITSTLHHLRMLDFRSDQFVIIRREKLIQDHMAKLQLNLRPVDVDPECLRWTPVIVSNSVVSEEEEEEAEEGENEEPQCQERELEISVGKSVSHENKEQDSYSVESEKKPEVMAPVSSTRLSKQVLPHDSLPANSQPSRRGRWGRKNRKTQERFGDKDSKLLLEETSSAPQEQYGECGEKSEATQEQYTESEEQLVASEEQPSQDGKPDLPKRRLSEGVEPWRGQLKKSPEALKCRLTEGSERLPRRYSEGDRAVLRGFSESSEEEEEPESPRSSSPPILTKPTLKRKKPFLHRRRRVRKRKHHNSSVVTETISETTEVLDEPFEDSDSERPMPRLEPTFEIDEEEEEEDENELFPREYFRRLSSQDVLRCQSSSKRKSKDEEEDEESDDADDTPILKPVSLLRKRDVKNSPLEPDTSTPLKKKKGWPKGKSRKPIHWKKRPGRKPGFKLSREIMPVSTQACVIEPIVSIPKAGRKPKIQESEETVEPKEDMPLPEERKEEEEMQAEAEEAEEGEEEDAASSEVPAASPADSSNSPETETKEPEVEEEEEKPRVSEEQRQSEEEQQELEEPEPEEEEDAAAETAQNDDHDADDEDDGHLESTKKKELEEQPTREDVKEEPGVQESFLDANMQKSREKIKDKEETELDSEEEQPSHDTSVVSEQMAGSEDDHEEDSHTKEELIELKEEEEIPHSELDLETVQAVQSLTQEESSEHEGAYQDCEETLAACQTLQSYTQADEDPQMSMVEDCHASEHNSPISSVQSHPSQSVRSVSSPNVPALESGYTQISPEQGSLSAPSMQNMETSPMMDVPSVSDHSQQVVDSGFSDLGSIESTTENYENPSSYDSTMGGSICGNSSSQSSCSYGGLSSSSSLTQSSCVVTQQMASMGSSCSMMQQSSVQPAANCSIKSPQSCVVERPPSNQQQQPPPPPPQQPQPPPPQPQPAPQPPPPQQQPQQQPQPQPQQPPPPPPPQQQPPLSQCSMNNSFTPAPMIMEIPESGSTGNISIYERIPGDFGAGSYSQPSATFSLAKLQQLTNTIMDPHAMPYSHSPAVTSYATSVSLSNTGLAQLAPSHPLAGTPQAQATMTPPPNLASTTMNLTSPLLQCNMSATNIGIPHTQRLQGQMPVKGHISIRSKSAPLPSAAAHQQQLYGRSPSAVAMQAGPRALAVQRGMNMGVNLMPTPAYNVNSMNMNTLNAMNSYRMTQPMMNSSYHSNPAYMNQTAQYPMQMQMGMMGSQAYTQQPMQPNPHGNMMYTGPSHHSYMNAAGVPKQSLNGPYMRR
CREBBP, sequence (Q92793 1085-1192 limits assumed): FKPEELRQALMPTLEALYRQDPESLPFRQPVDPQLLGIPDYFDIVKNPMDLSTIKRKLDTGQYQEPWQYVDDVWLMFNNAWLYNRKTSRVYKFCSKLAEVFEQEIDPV
EP300, sequence (Q09472 whole entry, species assumed): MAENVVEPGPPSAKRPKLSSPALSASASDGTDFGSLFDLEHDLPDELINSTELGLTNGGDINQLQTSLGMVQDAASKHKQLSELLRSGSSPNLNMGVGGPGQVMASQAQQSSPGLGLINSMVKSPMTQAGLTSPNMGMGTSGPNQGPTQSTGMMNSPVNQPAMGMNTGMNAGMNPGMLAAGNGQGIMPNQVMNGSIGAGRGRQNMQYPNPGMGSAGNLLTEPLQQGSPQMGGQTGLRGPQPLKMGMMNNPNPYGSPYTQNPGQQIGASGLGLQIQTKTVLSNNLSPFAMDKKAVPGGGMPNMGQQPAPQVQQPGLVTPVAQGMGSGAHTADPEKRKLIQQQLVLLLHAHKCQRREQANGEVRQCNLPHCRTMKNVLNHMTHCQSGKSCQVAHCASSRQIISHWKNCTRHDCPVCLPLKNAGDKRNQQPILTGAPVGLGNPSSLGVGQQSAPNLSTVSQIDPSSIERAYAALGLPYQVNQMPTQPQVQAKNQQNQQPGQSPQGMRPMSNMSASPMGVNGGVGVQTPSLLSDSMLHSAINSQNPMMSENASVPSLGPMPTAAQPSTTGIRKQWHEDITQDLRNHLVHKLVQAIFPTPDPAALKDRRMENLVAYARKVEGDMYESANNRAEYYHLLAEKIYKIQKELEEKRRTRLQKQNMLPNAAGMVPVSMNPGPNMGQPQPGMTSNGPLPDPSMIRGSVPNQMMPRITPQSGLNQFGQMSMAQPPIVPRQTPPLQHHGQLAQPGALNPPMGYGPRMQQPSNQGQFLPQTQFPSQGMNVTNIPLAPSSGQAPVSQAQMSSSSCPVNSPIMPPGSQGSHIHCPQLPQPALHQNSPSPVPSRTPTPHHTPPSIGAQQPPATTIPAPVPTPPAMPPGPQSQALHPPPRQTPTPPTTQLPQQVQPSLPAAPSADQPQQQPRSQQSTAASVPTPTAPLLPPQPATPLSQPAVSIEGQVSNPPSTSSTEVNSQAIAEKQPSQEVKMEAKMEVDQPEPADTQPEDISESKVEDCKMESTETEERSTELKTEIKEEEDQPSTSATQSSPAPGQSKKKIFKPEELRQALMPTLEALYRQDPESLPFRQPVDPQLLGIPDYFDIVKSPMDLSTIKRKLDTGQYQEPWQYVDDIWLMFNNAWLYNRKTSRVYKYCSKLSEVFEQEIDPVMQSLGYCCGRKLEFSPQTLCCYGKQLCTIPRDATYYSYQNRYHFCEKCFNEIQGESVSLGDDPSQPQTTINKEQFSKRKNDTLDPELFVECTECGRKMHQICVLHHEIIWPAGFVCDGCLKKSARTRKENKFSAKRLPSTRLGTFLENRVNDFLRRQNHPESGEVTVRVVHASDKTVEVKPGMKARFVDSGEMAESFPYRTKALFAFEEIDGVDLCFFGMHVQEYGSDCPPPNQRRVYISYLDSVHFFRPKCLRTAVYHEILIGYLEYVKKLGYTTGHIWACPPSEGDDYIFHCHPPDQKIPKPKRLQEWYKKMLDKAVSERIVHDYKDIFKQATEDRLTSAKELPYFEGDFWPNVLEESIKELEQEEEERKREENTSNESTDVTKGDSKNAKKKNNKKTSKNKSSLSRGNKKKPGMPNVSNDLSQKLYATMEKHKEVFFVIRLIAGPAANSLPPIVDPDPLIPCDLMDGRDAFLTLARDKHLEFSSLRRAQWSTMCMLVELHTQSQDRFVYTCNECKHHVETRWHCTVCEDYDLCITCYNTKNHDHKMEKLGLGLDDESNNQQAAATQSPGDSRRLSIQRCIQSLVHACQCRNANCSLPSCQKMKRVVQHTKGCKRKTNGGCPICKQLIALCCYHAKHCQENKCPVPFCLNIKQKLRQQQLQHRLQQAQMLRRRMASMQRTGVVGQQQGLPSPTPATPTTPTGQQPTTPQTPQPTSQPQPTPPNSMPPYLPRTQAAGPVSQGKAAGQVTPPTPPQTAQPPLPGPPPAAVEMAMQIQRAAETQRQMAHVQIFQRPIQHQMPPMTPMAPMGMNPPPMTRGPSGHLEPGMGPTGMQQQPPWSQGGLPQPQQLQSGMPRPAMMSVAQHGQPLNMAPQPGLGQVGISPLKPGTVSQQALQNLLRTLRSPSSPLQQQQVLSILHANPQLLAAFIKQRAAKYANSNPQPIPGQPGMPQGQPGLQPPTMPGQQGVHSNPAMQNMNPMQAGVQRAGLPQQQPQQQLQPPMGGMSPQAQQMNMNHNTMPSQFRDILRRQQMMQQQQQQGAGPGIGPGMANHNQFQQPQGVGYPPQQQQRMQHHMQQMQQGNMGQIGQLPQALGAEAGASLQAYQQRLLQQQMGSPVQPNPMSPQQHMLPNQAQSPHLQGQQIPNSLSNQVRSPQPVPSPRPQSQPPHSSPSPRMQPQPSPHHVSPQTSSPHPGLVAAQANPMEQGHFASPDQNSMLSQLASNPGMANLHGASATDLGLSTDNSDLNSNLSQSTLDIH

SMILES | activity at 1 µM ([1]; 1µM) [%] | activity at 10 µM ([1]; 10µM) [%] | activity at 1 µM ([2]; 1µM) [%] | activity at 10 µM ([2]; 10µM) [%] | activity at 1 µM ([3]; 1µM) [%] | activity at 10 µM ([3]; 10µM) [%] | activity at 1 µM ([4]; 1µM) [%] | activity at 10 µM ([4]; 10µM) [%] | activity at 1 µM ([5]; 1µM) [%] | activity at 10 µM ([5]; 10µM) [%] | further results
Cc1c(NC(=O)c2cc(C(N)=O)nc3cc(F)ccc23)c(C(F)(F)F)nn1Cc1ccc(C(C)(C)C)cc1 [BAY-588] | 103 | 99 | 99 | 97 | 100 | 93 | 99 | 96 | 94 | 95 | 
COc1cc(Cl)c(C(=O)N[C@@H](CN[C@H]2CC[C@@H](N)CC2)Cc2ccc(C#N)cc2)cc1-c1ccc(CN[C@H](C)c2ccc(C)cc2)o1 [BAY-850] | 98 | 87 | 101 | 101 | 93 | 94 | 96 | 97 | 99 | 102 | 
Cc1c(NC(=O)c2cc(C(N)=O)nc3cc(F)ccc23)c(C(F)(F)F)nn1Cc1ccc(C#N)cc1 [BAY-876] | 99 | 95 | 97 | 89 | 96 | 91 | 99 | 101 | 100 | 97 | 
Cc1noc(C)c1-c1ccc2c(c1)nc(CCc1ccccc1)n2CCN1CCOCC1 [CBP30-298] |  |  |  |  |  |  |  |  |  |  | Kd ([6]; BROMOscan Gene Symbol ATAD2B): > 50000 nM; Kd [6, 17]: > 30000 nM; Kd [7]: 2.7 µM; Kd ([8]; BROMOscan Gene Symbol BRD9): 12000 nM; Kd ([9]; BROMOscan Gene Symbol BRDT(2)): 6800 nM; Kd ([10]; BROMOscan Gene Symbol BRPF1): 18000 nM; Kd ([11]; BROMOscan Gene Symbol BRPF3): > 50000 nM; Kd [11, 17]: > 30000 nM; Kd ([12]; BROMOscan Gene Symbol CREBBP): 140 nM; Kd ([13]; BROMOscan Gene Symbol PBRM1(2)): 42000 nM; Kd ([14]; BROMOscan Gene Symbol TAF1(2)): 5.8 µM
CN1C[C@H](Nc2cnn(C)c(=O)c2Br)C[C@H](c2ccccc2)C1 [GSK4027] | 93 | 90 | 102 | 89 | 102 | 98 | 101 | 101 | 99 | 102 | 
COc1ccccc1C(=O)Nc1cc2c(cc1N1CCNC[C@H]1C)n(C)c(=O)n2C [GSK6853] |  |  |  |  |  |  |  |  |  |  | HATs Activity (%) ([1]; 1µM): 98%; HATs Activity (%) ([1]; 10µM): 104%; HATs Activity (%) ([2]; 1µM): 100%; HATs Activity (%) ([2]; 10µM): 94%; HATs Activity (%) ([3]; 1µM): 99%; HATs Activity (%) ([3]; 10µM): 101%; HATs Activity (%) ([4]; 1µM): 107%; HATs Activity (%) ([4]; 10µM): 104%; HATs Activity (%) ([5]; 1µM): 107%; HATs Activity (%) ([5]; 10µM): 107%
CO[C@H]1CNC[C@@H](OCC2CCC(F)(F)CC2)[C@@H]1Nc1ncc(-c2cncc(C)c2)c2cc(C)c(=O)[nH]c12 [GSK8814] | 96 | 102 | 100 | 95 | 99 | 103 | 96 | 102 | 102 | 100 | 
COc1cc2c(cc1NS(=O)(=O)c1ccc(Br)cc1C)n(C)c(=O)n2C [OF-1] |  |  |  |  |  |  |  |  |  |  | HATs Activity (%) ([1]; 1µM): 100%; HATs Activity (%) ([1]; 10µM): 103%; HATs Activity (%) ([2]; 1µM): 92%; HATs Activity (%) ([2]; 10µM): 93%; HATs Activity (%) ([3]; 1µM): 102%; HATs Activity (%) ([3]; 10µM): 94%; HATs Activity (%) ([4]; 1µM): 100%; HATs Activity (%) ([4]; 10µM): 102%; HATs Activity (%) ([5]; 1µM): 98%; HATs Activity (%) ([5]; 10µM): 93%; Kd ([6]; ATAD2B): 29000 nM; Kd ([8]; BRD9): 2900 nM; Kd ([9]; BRDT(2)): 22000 nM; Kd ([15]; CECR2): > 50000 nM; Kd [15, 17]: > 30000 nM; Kd ([12]; CREBBP): 45000 nM; Kd ([13]; PBRM1(2)): > 50000 nM; Kd [13, 17]: > 30000 nM; Kd ([14]; TAF1(2)): 4.7 µM; Kd ([16]; TRIM24(Bromo.)): 1900 nM
O=C(C=CN1CC2CC1CN2c1ccccn1)c1ccccc1O (stereo not drawn) [PFI-3] | 98 | 97 | 96 | 94 | 99 | 99 | 95 | 96 | 99 | 101 | Kd [6, 18]: > 30000 nM; Kd ([6]; KD, ATAD2B): > 100000 nM; Kd [8, 18]: > 30000 nM; Kd ([8]; KD, BRD9): > 100000 nM; Kd [9, 18]: > 30000 nM; Kd ([9]; KD, BRDT(2)): > 100000 nM; Kd [10, 18]: > 30000 nM; Kd ([10]; KD, BRPF1): > 100000 nM; Kd [11, 18]: > 30000 nM; Kd ([11]; KD, BRPF3): > 100000 nM; Kd [15, 18]: > 30000 nM; Kd ([15]; KD, CECR2): > 100000 nM; Kd [12, 18]: > 30000 nM; Kd ([12]; KD, CREBBP): > 100000 nM; Kd [16, 18]: > 30000 nM; Kd ([16]; KD, TRIM24(Bromo.)): > 100000 nM

More lines, main results first:

activity at 1 µM ([1]; 1µM) [%] | activity at 10 µM ([1]; 10µM) [%] | activity at 1 µM ([2]; 1µM) [%] | activity at 10 µM ([2]; 10µM) [%] | activity at 1 µM ([3]; 1µM) [%] | activity at 10 µM ([3]; 10µM) [%] | activity at 1 µM ([4]; 1µM) [%] | activity at 10 µM ([4]; 10µM) [%] | activity at 1 µM ([5]; 1µM) [%] | activity at 10 µM ([5]; 10µM) [%] | SMILES | further results
95 | 93 | 100 | 93 | 99 | 99 | 98 | 85 | 99 | 103 | Cc1cc2c(cc1N1C(=O)c3cccc4c(CCCO)ccc(c34)C1=O)n(C)c(=O)n2C [BAY-299] | 
94 | 90 | 100 | 95 | 97 | 96 | 92 | 90 | 99 | 95 | Cc1nnc2c3ccccc3c(N[C@@H](C)[C@H](c3ccccc3)N(C)C)nn12 [L-Moses] | 
99 | 95 | 93 | 100 | 99 | 97 | 97 | 99 | 96 | 92 | CN(C)CCCOc1ccc(-c2cc(NCCCn3cccn3)nc(S(C)(=O)=O)n2)cc1 [TP-238] | 
